Experimental findings from PMC12603070, “A high-throughput screening approach to discover potential colorectal cancer chemotherapeutics: repurposing drugs to identify novel disruptors of 14-3-3 proteins” (Cell Death & Disease, 2025) are described below.

One experiment has as its target T1, His-14-3-3ζ (Homo sapiens, UniProt P63104).
T1 construct: made in house; host or cells: Escherichia coli BL21 LOBSTR-RIL
T1 sequence (P63104 1-245): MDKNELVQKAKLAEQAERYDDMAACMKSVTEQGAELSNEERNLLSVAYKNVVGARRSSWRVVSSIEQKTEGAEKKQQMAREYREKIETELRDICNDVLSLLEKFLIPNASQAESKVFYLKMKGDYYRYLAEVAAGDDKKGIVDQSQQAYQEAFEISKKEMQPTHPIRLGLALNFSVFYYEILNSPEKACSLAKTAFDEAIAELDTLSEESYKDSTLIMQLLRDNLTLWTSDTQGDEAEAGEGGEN
As to the kind of experiment: Surface plasmon resonance (SPR) on immobilized His-14-3-3ζ. The format is binding. On the procedure:
The published protocol of Higuchi & Ottmann as followed with modifications to express 14-3-3ζ [44]. Escherichia coli BL21 LOBSTR-RIL cells were transformed with a plasmid encoding His-14-3-3ζ. The transformed cells were grown in TB medium containing appropriate antibiotic at 37 °C with shaking at 200 rpm until the culture reached an optical density of 0.6–0.8 at 600 nm (OD600). Protein expression was induced by the addition of isopropyl β-D-1-thiogalactopyranoside to a final concentration of 0.4 mM. Subsequently, the temperature was decreased to 16 °C and the culture incubated for another 16 h. Cells were harvested by centrifugation at 7000 × g for 20 min at 21 °C. The supernatant was discarded, and the cell pellet containing 14-3-3ζ was mixed and resuspended in lysis buffer (50 mM Tris, pH 7.80), 500 mM NaCl, 5 mM imidazole, 5% glycerol, 1 mM PMSF & 1 mM Benzamidine. Cells were lysed by sonication on ice using a probe sonicator (20 cycles of 10 s on, 20 s off, amplitude 70%). The lysate was centrifuged at 30,000 × g for 30 min at 4 °C to remove cell debris. The supernatant was collected for further purification. The 14-3-3ζ was isolated from the lysate by affinity chromatography (Ni-NTA beads, Qiagen). For further purification, the eluant was subjected to size exclusion chromatography using a Superdex 75 gel filtration column (HiLoad 16/600, GE Healthcare), pre-equilibrated with SEC buffer (20 mM Tris, pH 7.5, 150 mM NaCl, 1 mM TCEP). The protein solution was concentrated by ultrafiltration, flash frozen, and stored at −80 °C.
The general protocol for evaluating 14-3-3ζ was adapted from Hartman et al. and modified for our instrument and sensors. The SPR experiments were performed using a Open surface plasmon resonance instrument (OpenSPR^TM, Nicoya, Kitchener-Waterloo, Canada), and high sensitivity-nitrilotriacetic acid (HS-NTA) sensors. The sensor chip surface was first activated with 40 mM of NiCl2 at a flow rate of 20 μL/min using 20 mM HEPES pH 7.8, 150 mM NaCl and 1% DMSO as the running buffer. All running buffers were filtered and degassed prior to use. 100 μg/mL His-14-3-3ζ protein in 20 mM HEPES pH 7.8, 150 mM NaCl and 1% DMSO was injected at 8 μL/min flow rate for 800 s contact time and immobilized until the instrument registered 2900–3500 RU (activation and protein immobalization spectrograms are provided as Supplementary Fig. 10). Drugs were dissolved in DMSO and were diluted with 20 mM HEPES pH 7.8, 150 mM NaCl (final DMSO concentration of 1% v/v) and were injected at a flow rate of 50 μL/min. Single-cycle kinetics were applied for KD evaluation and binding affinity using TraceDrawer v.1.8.1 (Ridgeview Instruments AB).
On the technique in general: Surface plasmon resonance follows binding to a sensor surface in real time, without labels.

The next experiment deals with T2, 14-3-3ζ (Homo sapiens, UniProt P63104).
T2 construct: made in house; host or cells: Escherichia coli BL21 LOBSTR-RIL
T2 sequence (P63104 1-245): T1 sequence (P63104 1-245)
As to the kind of experiment: Isothermal titration calorimetry (ITC) with purified 14-3-3ζ. The format is binding. The settings on record: 750-1,000 μM ligand, 70 μM protein, 1-4% DMSO. On the procedure:
application to isothermal titration calorimetry (ITC) studies.
ITC experiments were performed, but the solubility incompatibility gave unclear data, with a […]
All ITC experiments were conducted at 750-1,000 μM of the ligand (in the syringe: titrant), with 70 μM of protein in the cell: titrand); each injection introduced approximately 4 nmol of ligand. All experiments were conducted at 1 -4% DMSO based on drug’s solubility. […]
A general note: ITC needs no label: the signal is the heat of the interaction.

`CCCCCCOC(=O)c1ccc(Nc2c([N+](=O)[O-])cc(C(=O)O)cc2[N+](=O)[O-])cc1` [BV01, 4-((4-((hexyloxy)carbonyl)phenyl)amino)-3,5-dinitrobenzoic acid]: the “Bmax ([Signal (RU)])” value was determined as 100.98 RU at His-14-3-3ζ (SPR curve at 0.005 mM ligand); 147.7 RU on His-14-3-3ζ (SPR curve at 0.007 mM ligand); 198.6 RU on His-14-3-3ζ (SPR curve at 0.03 mM ligand); 257.38 RU at His-14-3-3ζ (SPR curve at 0.05 mM ligand); 320.07 RU on His-14-3-3ζ (SPR curve at 0.07 mM ligand). Further, on His-14-3-3ζ (SPR dissociation rate, value repeated per curve), the kd amounted to 0.0112 s⁻¹. The “BI ([Signal (RU)])” value at His-14-3-3ζ (SPR fit parameter, per curve) was 0.1 RU. Besides, the Kd (commonly the equilibrium constant for the complex coming apart) at His-14-3-3ζ (SPR, immobilized His-14-3-3ζ, single-cycle kinetics, 1% DMSO) worked out at 6.32 µM. Moreover, at His-14-3-3ζ (pH 7.8, read-out: ka), the kon came to 1770 M⁻¹ s⁻¹. Further, at 14-3-3ζ, the “Binding by ITC” value is given as “weak sign of binding”.
